Assay [1] deals with T1, G protein-activated inward rectifier potassium channel 2 (Homo sapiens) (UniProt P48051).
T1 sequence (whole entry): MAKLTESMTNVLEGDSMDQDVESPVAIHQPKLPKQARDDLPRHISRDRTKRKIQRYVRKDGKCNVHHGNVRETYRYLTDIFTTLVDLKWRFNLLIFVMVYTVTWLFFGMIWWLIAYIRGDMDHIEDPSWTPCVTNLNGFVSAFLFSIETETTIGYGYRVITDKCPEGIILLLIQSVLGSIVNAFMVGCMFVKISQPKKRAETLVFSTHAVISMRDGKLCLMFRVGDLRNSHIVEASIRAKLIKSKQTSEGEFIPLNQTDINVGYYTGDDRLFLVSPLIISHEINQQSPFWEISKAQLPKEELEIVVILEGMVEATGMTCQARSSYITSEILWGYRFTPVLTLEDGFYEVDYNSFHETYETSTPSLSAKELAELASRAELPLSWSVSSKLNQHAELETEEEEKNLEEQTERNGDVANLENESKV
Briefly: Activation of GIRK2 (unknown origin).

For assay [2], the target named is T2, Kir3.1/Kir3.2 (Homo sapiens, UniProt P48051+P48549).
T2 sequence (P48549 whole entry): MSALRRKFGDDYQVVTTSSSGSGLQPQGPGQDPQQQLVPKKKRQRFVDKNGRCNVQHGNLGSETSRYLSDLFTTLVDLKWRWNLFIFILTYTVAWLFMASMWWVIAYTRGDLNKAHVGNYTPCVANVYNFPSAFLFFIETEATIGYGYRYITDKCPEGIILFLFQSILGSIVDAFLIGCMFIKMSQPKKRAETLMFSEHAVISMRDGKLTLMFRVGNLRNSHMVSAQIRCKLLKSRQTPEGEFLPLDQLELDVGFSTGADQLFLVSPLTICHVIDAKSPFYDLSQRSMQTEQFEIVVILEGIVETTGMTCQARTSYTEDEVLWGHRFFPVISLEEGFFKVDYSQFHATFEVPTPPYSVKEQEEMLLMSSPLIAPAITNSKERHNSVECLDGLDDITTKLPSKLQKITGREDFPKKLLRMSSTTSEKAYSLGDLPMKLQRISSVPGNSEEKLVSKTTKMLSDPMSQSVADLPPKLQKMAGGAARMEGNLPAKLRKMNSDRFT
T2 sequence (P48051 whole entry): T1 sequence (whole entry)
Kind of assay: Activation of GIRK1/2 (unknown origin). The assay is classed as protein-complex assay.

Assay [3] concerns the target Kir3.2/Kir3.3 (Homo sapiens) (UniProt P48051+Q92806). Kind of assay: Activation of GIRK2/3 (unknown origin). The assay is classed as protein-complex assay.
Assay [4] has as its target T3, Kir3.1/Kir3.2 (Homo sapiens) (UniProt P48549+P48051). Kind of assay: Inhibition of GIRK1/2 (unknown origin) relative to SCH3320. The assay is classed as protein-complex assay. Further details: concentration or dose not given beside the values. Particulars: concentration not given here.
In assay [5] the target is T4, Kir3.1/Kir3.4 (Homo sapiens, UniProt P48544+P48549).
T4 sequence (P48549 whole entry): T2 sequence (P48549 whole entry)
T4 sequence (P48544 whole entry): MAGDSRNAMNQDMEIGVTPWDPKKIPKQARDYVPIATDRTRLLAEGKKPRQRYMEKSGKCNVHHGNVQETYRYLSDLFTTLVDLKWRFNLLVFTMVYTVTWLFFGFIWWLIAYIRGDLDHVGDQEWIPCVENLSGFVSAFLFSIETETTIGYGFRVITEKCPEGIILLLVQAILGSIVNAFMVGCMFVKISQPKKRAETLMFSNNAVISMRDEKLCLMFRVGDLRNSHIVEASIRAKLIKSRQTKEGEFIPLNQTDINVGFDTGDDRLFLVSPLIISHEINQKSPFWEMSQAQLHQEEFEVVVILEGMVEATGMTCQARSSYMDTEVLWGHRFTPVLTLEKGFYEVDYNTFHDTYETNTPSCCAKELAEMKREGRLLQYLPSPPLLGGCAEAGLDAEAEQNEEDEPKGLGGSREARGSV
Kind of assay: Inhibition of GIRK1/4 (unknown origin). The assay is classed as protein-complex assay.

The target in assay [6] is T5, Kir3.1/Kir3.4 (Homo sapiens) (UniProt P48549+P48544). Briefly: Inhibition of GIRK1/4 (unknown origin) relative to SCH3320. The assay is classed as protein-complex assay. Further details: concentration or dose not given beside the values. Particulars: concentration not given here.
In assay [7] the target is T2, Kir3.1/Kir3.2. Briefly: Inhibition of GIRK1/2 (unknown origin). The assay is classed as protein-complex assay.
For assay [8], the target named is T5, Kir3.1/Kir3.4 (Homo sapiens). Briefly: Activation of GIRK1/4 (unknown origin) relative to ML297. Format: protein-complex assay.
The target in assay [9] is T4, Kir3.1/Kir3.4. Briefly: Activation of GIRK1/4 (unknown origin). The assay is classed as protein-complex assay.
Assay [10] deals with T3, Kir3.1/Kir3.2 (Homo sapiens). Kind of assay: Activation of GIRK1/2 (unknown origin) relative to ML297. Format: protein-complex assay.

Structures are written as SMILES. pEC50, pIC50: −log10 of the molar value. Calls of active or inactive are those of the source. The rule behind the calls is not given here. Bounds are passed on as bounds.

The pEC50 is the negative decadic logarithm of the EC50, by convention in mol/L. The term inhibition denotes the drop in the measured response relative to a control, in per cent. By pIC50 is commonly meant the IC50 on a negative log10 scale, so that one unit is a factor of ten.

As for `O=C(Nc1ccc(F)c(F)c1)Nc1cc(-c2ccccc2)nn1-c1ccccc1`, the outcome in assay [1] and in [3] was inactive. The pEC50 in [2] was under 4.52.
`CC(C)c1cc(NC(=O)Nc2ccc(F)c(F)c2)n(-c2ccccc2)n1`: the inhibition in assay [4] stood at 136%; in assay [6] it was 150%. In addition, the pIC50 in assay [5] is 5.85; in [7], 5.70. The outcome in [1] and in [3] was inactive.
In the case of `CC(C)c1cc(NC(=O)Nc2cccc(Cl)c2)n(Cc2ccccc2)n1`, the figures for the Efficacy in [8] and in assay [10] were 23% and 35%, respectively. For the same compound, the figures for the pEC50 in assay [9] and in assay [2] were 5.77 and 6.33, respectively.
As for `O=C(Nc1cccc(Br)c1)Nc1cc(C2CCC2)nn1-c1ccccc1`, the inhibition in assay [4] worked out at 51%; in [6], 69%. The pIC50 was 6.14 in assay [5] and 5.72 in assay [7].
For the compound `Cc1cc(NC(=O)Nc2ccc(F)c(F)c2)n(-c2ccncc2)n1`, the pEC50 in [9] was under 4.52; in [2], under 5.00. For the same compound, the result in assay [1] and in assay [3] was inactive. Besides, the Efficacy in assay [10] came out at 88%.
For `Cc1ccc(NC(=O)Nc2cc(C3CC3)nn2Cc2ccccc2)cc1`, the Efficacy in [8] came to 46%; in assay [10] it was 35%. Also, the pEC50 in [9] was 6.04; in assay [2], 6.24.
In the same order, the values of `O=C(Nc1ccc(F)cc1)Nc1cc(C2CC2)nn1Cc1ccccc1` are 90%, 57%, 6.24 and 6.46.
On to `Cc1cccc(NC(=O)Nc2cc(C3CC3)nn2-c2ccccc2)c1`, for which the inhibition in assay [4] is 80%. For the same compound, the pIC50 in [5] was under 4.52; in assay [7], 6.07.
Take `O=C(Nc1cccc(C(F)(F)F)c1)Nc1cc(C2CCC2)nn1-c1ccccc1`: the inhibition worked out at 65% in assay [4] and 84% in assay [6]. Also, the pIC50 is 6.16 in assay [5] and 5.89 in assay [7].
Take `CC(C)c1cc(NC(=O)Nc2cccc(C(F)(F)F)c2)n(Cc2ccccc2)n1`: the Efficacy in assay [8] stood at 10%; in [10], 38%. In addition, the values for the pEC50 in assay [9] and in assay [2] were 5.46 and 5.77, respectively.
As to `O=C(Nc1cccc(C(F)(F)F)c1)Nc1cc(C2CC2)nn1Cc1ccccc1`, the Efficacy in [8] amounted to 39%; in assay [10], 35%. The results for the pEC50 in assay [9] and in [2] were 6.19 and 6.47, respectively.
With `Cc1cccc(NC(=O)Nc2cc(C(C)C)nn2-c2ccccc2)c1`, the inhibition in assay [4] stood at 93%; in assay [6], 67%. Moreover, the pIC50 in assay [5] was 6.07; in [7] it was 5.59.
As for `O=C(Nc1ccc(F)c(Cl)c1)Nc1cc(CC2CC2)nn1-c1ccccc1`, the results for the inhibition in assay [4] and in [6] were 87% and 70%, respectively. The pIC50 in assay [5] is 6.51; in assay [7] it was 6.09.
As for `Cc1cc(NC(=O)Nc2ccc(F)c(F)c2)n(-c2ccccn2)n1`, the negative logarithm of the EC50 (pEC50) in assay [9] was under 4.52; in assay [2], under 5.00. Also, the result in assay [1] and in assay [3] was inactive. Besides, the Efficacy in assay [10] turned out to be 78%.
For `O=C(Nc1cccc(C(F)(F)F)c1)Nc1cc(CC2CC2)nn1-c1ccccc1`, the inhibition turned out to be 88% in assay [4] and 45% in assay [6]. The pIC50 in assay [5] is 6.60; in assay [7], 6.27.
On to `O=C(Nc1ccc(F)c(F)c1)Nc1cc(C2CCCC2)nn1-c1ccccc1`, for which the values for the inhibition in assay [4] and in assay [6] were 85% and 88%, respectively. Besides, the pIC50 in assay [5] is 5.39; in assay [7], 5.29. The outcome in assay [1] and in assay [3] was inactive.
In the case of `Cc1ccc(NC(=O)Nc2cc(C(C)C)nn2-c2ccccc2)cc1`, the inhibition stood at 100% in [4] and 62% in [6]. Also, the pIC50 is 5.74 in [5] and 5.41 in assay [7].
Consider `O=C(Nc1cccc(Br)c1)Nc1cc(C2CC2)nn1Cc1ccccc1`, for which the Efficacy in assay [8] is 65%; in [10], 44%. Besides, the values for the pEC50 in assay [9] and in [2] were 6.10 and 6.42, respectively.
With `O=C(Nc1ccc(F)c(F)c1)Nc1cc(C2CCC2)nn1-c1ccccc1`, the result in [1] and in assay [3] was inactive.
Turning to `O=C(Nc1cccc(Cl)c1)Nc1cc(C2CCC2)nn1-c1ccccc1`, the inhibition in assay [4] came to 64%; in assay [6], 89%. Also, the pIC50 in [5] is 6.32; in assay [7], 5.85.
As for `CC(C)c1cc(NC(=O)Nc2cccc(F)c2)n(-c2ccccc2)n1`, the inhibition in assay [4] is 77%; in assay [6] it was 70%. The figures for the pIC50 in assay [5] and in assay [7] were 6.11 and 5.68, respectively.
As for `O=C(Nc1ccc(F)c(F)c1)Nc1cc(CC2CC2)nn1-c1ccccc1`, the inhibition in [4] came to 95%; in assay [6], 67%. Further, the pIC50 in [5] is 6.25; in assay [7], 6.19. For the same compound, the outcome in assay [1] and in assay [3] was inactive.
As to `CSc1cccc(NC(=O)Nc2cc(C3CC3)nn2-c2ccccc2)c1`, the inhibition in assay [4] stood at 86%. The pIC50 in [5] was under 4.52; in assay [7], 6.02.
With `CC(C)c1cc(NC(=O)Nc2cccc(C(F)(F)F)c2)n(-c2ccccc2)n1`, the figures for the inhibition in [4] and in [6] were 62% and 100%, respectively. Besides, the figures for the pIC50 in assay [5] and in assay [7] were 5.89 and 5.68, respectively.
On the same counts, the results for `Cc1cccc(NC(=O)Nc2cc(CC3CC3)nn2-c2ccccc2)c1` are 83%, 47%, 6.60 and 6.28.
Consider `O=C(Nc1ccc(F)c(F)c1)Nc1cc(C2CC2)nn1-c1ccccc1`, for which the result in assay [1] and in assay [3] was inactive. Also, the pEC50 in assay [2] was 6.39. The same compound showed an Efficacy in assay [10] of 32%.
On to `O=C(Nc1cccc(F)c1)Nc1cc(C2CC2)nn1-c1ccccc1`, for which, in assay [4], the inhibition was determined as 60%. The pIC50 in assay [5] is under 4.52; in assay [7] it was 5.92.
`O=C(Nc1cccc(Cl)c1)Nc1cc(CC2CC2)nn1-c1ccccc1`: the inhibition in assay [4] was 76%; in assay [6], 72%. Moreover, the pIC50 is 6.47 in [5] and 6.20 in assay [7].
`O=C(Nc1ccc(F)cc1)Nc1cc(CC2CC2)nn1-c1ccccc1`: the inhibition worked out at 80% in assay [4] and 54% in assay [6]. Also, the results for the pIC50 in assay [5] and in [7] were 6.57 and 6.19, respectively.
On the same counts, the results for `O=C(Nc1ccc(F)c(Cl)c1)Nc1cc(C2CCC2)nn1-c1ccccc1` are 70%, 69%, 6.21 and 5.72.
As to `O=C(Nc1cccc(F)c1)Nc1cc(CC2CC2)nn1-c1ccccc1`, the inhibition in assay [4] came out at 75%; in assay [6] it was 72%. Besides, the negative logarithm of the IC50 (pIC50) was 6.74 in assay [5] and 6.35 in assay [7].
For the compound `O=C(Nc1ccc(F)c(F)c1)Nc1cc(C(F)(F)F)nn1-c1ccccc1`, the outcome in [1] and in [3] was inactive.

The values are drawn from ChEMBL document CHEMBL2406941, “Discovery of 'molecular switches' within a GIRK activator scaffold that afford selective GIRK inhibitors” (Bioorg Med Chem Lett, 2013).
